Results reported in patent US10301291B2, “Imidazole derivative having JNK inhibitory activity and use thereof” (SAMJIN PHARMACEUTICAL CO., LTD., priority 2016, dated 2019).

How the values were obtained:
Assay in all cases: Kinase profiling service (Reaction Biology Corp.)
Format in all cases: biochemical
Details in all cases: compound 10 μM
[1] = target: JNK2 (Homo sapiens (Human), UniProt P45984)
Protocol: (§1) An inhibitory activity of the compound (10 μM) of Example 34 against various protein kinases was measured by means of a kinase profiling service (ICso profiler express) of Reaction Biology Corp., wherein ICso, a concentration at which JNK enzyme activity was inhibited 50%, was also measured by sequentially reducing a concentration of the compound.

[2] = target: JNK1 (Homo sapiens (Human), UniProt P45983)
Protocol: as §1

[3] = target: IGF1R (Homo sapiens (Human), UniProt P08069)
Protocol: as §1

[4] = target: ROS/ROS1 (Homo sapiens (Human), UniProt P08922)
Protocol: as §1

[5] = target: SYK (Homo sapiens (Human), UniProt P43405)
Protocol: as §1

[6] = target: LYN (Homo sapiens (Human), UniProt P07948)
Protocol: as §1

[7] = target: JNK3 (Homo sapiens (Human), UniProt P53779)
Protocol: as §1

[8] = target: LCK (Homo sapiens (Human), UniProt P06239)
Protocol: as §1

[9] = target: CDK2/cyclin E (Homo sapiens (Human), UniProt P24941)
Protocol: as §1

[10] = target: MEK1 (Homo sapiens (Human), UniProt Q02750)
Protocol: as §1

[11] = target: ERK1 (Homo sapiens (Human), UniProt P27361)
Protocol: as §1

[12] = target: ERK2/MAPK1 (Homo sapiens (Human), UniProt P28482)
Protocol: as §1

[13] = target: FMS (Homo sapiens (Human), UniProt P07333)
Protocol: as §1

[14] = target: c-MET (Homo sapiens (Human), UniProt P08581)
Protocol: as §1

[15] = target: FAK/PTK2 (Homo sapiens (Human), UniProt Q05397)
Protocol: as §1

[16] = target: PKA (Homo sapiens (Human), UniProt P17612)
Protocol: as §1

[17] = target: mTOR/FRAP1 (Homo sapiens (Human), UniProt P42345)
Protocol: as §1

[18] = target: ALK (Homo sapiens (Human), UniProt Q9UM73)
Protocol: as §1

[19] = target: MLK1/MAP3K9 (Homo sapiens (Human), UniProt P80192)
Protocol: as §1

[20] = target: c-Src (Homo sapiens (Human), UniProt P12931)
Protocol: as §1

[21] = target: Aurora A (Homo sapiens (Human), UniProt O14965)
Protocol: as §1

[22] = target: KDR/VEGFR2 (Homo sapiens (Human), UniProt P35968)
Protocol: as §1

[23] = target: AKT1 (Homo sapiens (Human), UniProt P31749)
Protocol: as §1

[24] = target: c-Kit (Homo sapiens (Human), UniProt P10721)
Protocol: as §1

[25] = target: FGFR3 (Homo sapiens (Human), UniProt P22607)
Protocol: as §1

[26] = target: EGFR (Homo sapiens (Human), UniProt P00533)
Protocol: as §1

[27] = target: CDK1/cyclin B (Homo sapiens (Human), UniProt P06493)
Protocol: as §1

[28] = target: PLK1 (Homo sapiens (Human), UniProt P53350)
Protocol: as §1

[29] = target: JAK3 (Homo sapiens (Human), UniProt P52333)
Protocol: as §1

[30] = target: LRRK2 (Homo sapiens (Human), UniProt Q5S007)
Protocol: as §1

[31] = target: FLT3 (Homo sapiens (Human), UniProt P36888)
Protocol: as §1

[32] = target: GSK3b (Homo sapiens (Human), UniProt P49841)
Protocol: as §1

[33] = target: ABL1 (Homo sapiens (Human), UniProt P00519)
Protocol: as §1

[34] = Data 1 and Data 2, read-out: % Enzyme Activity (relative to DMSO controls)

ERK2/MAPK1, sequence (P28482 whole entry): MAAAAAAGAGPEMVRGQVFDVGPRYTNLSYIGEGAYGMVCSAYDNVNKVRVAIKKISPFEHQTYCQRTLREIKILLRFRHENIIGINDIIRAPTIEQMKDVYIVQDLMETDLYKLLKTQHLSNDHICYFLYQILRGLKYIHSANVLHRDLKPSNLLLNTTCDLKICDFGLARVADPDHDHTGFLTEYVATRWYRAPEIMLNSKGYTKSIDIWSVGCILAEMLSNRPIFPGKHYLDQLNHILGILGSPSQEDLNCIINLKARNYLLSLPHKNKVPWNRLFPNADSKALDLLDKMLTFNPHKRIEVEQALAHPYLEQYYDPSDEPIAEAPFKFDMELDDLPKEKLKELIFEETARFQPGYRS
FAK/PTK2, sequence (Q05397 whole entry): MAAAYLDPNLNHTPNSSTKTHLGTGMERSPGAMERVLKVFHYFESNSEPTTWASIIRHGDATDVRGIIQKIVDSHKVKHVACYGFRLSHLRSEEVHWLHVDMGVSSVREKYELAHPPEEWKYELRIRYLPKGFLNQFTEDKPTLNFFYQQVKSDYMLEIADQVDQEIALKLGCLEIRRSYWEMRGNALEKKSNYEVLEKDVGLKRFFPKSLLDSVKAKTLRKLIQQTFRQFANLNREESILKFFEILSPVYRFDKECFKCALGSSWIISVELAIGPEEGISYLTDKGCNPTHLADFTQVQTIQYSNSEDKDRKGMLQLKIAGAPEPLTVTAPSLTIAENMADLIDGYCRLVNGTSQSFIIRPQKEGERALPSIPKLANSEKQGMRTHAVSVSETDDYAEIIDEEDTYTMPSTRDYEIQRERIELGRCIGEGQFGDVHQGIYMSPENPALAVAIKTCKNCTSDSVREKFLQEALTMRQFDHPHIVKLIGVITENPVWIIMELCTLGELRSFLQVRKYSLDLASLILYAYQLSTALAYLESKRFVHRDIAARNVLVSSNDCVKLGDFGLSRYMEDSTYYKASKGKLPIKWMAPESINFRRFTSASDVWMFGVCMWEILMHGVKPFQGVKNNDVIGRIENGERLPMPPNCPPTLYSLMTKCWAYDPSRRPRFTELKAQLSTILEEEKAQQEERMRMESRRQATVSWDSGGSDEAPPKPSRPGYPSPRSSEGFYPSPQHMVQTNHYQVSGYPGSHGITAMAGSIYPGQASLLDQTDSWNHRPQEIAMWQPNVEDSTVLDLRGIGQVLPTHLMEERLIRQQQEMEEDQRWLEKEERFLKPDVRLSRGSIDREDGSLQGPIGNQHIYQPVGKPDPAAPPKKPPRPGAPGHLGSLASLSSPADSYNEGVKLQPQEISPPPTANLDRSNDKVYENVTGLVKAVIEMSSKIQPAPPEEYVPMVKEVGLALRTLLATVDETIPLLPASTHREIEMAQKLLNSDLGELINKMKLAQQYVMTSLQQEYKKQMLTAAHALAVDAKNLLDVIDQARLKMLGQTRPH
ERK1, sequence (P27361 whole entry): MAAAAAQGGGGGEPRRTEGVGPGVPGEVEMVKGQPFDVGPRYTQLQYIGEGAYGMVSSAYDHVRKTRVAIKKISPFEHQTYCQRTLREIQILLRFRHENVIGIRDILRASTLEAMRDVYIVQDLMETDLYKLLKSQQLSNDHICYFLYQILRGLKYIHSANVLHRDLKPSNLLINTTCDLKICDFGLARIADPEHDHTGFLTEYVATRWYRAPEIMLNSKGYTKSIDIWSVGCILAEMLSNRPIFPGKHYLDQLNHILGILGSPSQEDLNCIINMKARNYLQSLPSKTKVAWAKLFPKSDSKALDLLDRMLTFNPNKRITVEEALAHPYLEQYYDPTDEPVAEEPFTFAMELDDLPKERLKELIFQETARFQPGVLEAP
MLK1/MAP3K9, sequence (P80192 whole entry): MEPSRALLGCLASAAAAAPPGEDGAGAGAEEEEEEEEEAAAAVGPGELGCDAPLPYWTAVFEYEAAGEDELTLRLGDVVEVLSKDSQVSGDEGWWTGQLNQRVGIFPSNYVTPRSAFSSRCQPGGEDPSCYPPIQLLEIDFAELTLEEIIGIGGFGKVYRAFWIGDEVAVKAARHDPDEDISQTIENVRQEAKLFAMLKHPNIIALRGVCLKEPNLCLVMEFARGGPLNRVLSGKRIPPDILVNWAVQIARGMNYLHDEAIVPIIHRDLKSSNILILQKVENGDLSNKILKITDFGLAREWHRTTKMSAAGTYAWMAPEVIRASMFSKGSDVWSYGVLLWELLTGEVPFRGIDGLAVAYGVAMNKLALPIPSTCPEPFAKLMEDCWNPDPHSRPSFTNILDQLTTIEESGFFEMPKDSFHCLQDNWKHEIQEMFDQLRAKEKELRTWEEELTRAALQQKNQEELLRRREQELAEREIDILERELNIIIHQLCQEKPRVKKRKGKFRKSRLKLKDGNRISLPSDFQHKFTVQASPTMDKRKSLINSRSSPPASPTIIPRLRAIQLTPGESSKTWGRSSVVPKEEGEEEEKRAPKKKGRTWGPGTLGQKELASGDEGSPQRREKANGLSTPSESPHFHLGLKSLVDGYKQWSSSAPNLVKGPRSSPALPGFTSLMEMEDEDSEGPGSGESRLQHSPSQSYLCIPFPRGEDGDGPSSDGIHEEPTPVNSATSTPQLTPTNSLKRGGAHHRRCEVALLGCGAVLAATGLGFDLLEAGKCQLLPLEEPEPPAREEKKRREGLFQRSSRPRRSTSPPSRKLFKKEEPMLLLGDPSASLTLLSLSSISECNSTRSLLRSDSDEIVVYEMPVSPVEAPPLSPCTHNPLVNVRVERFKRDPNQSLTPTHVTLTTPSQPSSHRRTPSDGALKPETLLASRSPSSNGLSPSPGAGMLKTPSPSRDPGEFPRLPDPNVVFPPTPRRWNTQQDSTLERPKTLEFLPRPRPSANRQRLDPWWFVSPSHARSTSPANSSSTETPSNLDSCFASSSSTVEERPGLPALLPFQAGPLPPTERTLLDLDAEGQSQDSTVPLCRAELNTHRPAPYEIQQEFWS
CDK1/cyclin B, sequence (P06493 whole entry): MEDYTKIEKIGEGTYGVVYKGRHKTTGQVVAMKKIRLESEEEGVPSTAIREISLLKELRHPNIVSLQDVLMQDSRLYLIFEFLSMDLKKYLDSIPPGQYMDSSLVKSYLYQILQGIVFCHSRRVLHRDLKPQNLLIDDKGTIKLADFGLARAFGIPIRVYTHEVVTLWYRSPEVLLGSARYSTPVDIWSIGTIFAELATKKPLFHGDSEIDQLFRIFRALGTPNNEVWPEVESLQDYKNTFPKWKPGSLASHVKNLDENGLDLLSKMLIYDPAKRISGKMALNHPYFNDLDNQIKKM
CDK1/cyclin B, sequence (P14635 whole entry partner): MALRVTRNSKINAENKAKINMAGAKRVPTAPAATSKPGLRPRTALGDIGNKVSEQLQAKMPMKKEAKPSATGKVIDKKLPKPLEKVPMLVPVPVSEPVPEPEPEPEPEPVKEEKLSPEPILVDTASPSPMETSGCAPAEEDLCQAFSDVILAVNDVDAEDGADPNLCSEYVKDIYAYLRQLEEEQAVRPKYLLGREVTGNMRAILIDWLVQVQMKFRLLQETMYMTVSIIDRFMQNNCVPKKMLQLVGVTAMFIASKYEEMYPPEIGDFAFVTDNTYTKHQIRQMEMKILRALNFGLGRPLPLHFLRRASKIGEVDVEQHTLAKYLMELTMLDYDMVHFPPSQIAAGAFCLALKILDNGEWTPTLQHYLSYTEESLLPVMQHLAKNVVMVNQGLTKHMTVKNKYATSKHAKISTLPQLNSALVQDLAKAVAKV
ABL1, sequence (P00519 whole entry): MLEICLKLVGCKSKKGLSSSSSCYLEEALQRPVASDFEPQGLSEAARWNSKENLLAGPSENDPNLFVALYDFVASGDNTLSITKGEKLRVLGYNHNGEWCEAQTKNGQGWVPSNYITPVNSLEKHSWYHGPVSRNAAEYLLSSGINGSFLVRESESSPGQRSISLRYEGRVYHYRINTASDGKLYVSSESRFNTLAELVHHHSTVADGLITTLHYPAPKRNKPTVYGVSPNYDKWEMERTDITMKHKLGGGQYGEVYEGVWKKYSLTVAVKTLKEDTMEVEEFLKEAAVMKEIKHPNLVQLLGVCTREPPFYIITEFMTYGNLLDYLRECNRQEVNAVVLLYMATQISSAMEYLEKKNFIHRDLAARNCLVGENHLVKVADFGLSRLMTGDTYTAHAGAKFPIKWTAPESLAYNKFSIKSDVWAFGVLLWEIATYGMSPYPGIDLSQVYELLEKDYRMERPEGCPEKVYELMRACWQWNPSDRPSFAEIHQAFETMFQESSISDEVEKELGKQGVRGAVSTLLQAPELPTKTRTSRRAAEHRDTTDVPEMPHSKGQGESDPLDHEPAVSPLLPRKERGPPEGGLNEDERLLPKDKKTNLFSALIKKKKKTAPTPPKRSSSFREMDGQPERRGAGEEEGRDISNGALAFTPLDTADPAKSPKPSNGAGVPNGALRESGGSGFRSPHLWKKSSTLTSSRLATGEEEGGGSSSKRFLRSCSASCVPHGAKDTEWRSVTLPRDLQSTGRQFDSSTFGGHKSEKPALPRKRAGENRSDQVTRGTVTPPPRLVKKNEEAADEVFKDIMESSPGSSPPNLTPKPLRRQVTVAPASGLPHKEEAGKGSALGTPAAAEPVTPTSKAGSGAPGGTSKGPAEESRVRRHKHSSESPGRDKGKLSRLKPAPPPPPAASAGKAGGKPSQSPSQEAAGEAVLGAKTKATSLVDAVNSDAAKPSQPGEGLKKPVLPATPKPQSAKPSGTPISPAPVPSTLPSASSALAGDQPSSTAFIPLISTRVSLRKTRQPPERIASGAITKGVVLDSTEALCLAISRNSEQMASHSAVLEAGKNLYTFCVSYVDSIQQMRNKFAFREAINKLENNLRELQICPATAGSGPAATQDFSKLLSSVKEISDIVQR

Structure (SMILES): N#CCc1cnc(-c2ccc3ccccc3c2)n1-c1ccnc(NC2CCCN(C(=O)C3CC3)C2)n1 (stereo not drawn) [Example 34, 2-(1-(2-(1-(cyclopropanecarbonyl)piperidine-3-ylamino)pyrimidine-4-yl)-2-(naphthalene-2-yl)-1H-imidazole-5-yl)acetonitrile]
- % Enzyme Activity (relative to DMSO controls) ([1]; Data 1 and Data 2): 1.40%
- remaining activity at 10 µM [1, 34]: 1.41%
- % Enzyme Activity (relative to DMSO controls) ([2]; Data 1 and Data 2): 2.84%
- remaining activity at 10 µM [2, 34]: 3.04%
- % Enzyme Activity (relative to DMSO controls) ([3]; Data 1 and Data 2): 92.45%
- remaining activity at 10 µM [3, 34]: 93.1%
- % Enzyme Activity (relative to DMSO controls) ([4]; Data 1 and Data 2): 95.23%
- remaining activity at 10 µM [4, 34]: 97.8%
- % Enzyme Activity (relative to DMSO controls) ([5]; Data 1 and Data 2): 97.43%
- remaining activity at 10 µM [5, 34]: 98.1%
- % Enzyme Activity (relative to DMSO controls) ([6]; Data 1 and Data 2): 85.66%
- remaining activity at 10 µM [6, 34]: 86.6%
- % Enzyme Activity (relative to DMSO controls) ([7]; Data 1 and Data 2): 4.81%
- remaining activity at 10 µM [7, 34]: 5.04%
- % Enzyme Activity (relative to DMSO controls) ([8]; Data 1 and Data 2): 95.50%
- remaining activity at 10 µM [8, 34]: 95.8%
- % Enzyme Activity (relative to DMSO controls) ([9]; Data 1 and Data 2): 95.83%
- remaining activity at 10 µM [9, 34]: 97.5%
- % Enzyme Activity (relative to DMSO controls) ([10]; Data 1 and Data 2): 104.84%
- remaining activity at 10 µM [10, 34]: 105%
- % Enzyme Activity (relative to DMSO controls) ([11]; Data 1 and Data 2): 97.98%
- remaining activity at 10 µM [11, 34]: 98.5%
- % Enzyme Activity (relative to DMSO controls) ([12]; Data 1 and Data 2): 97.70%
- remaining activity at 10 µM [12, 34]: 98%
- % Enzyme Activity (relative to DMSO controls) ([13]; Data 1 and Data 2): 93.11%
- remaining activity at 10 µM [13, 34]: 93.7%
- % Enzyme Activity (relative to DMSO controls) ([14]; Data 1 and Data 2): 90.72%
- remaining activity at 10 µM [14, 34]: 105%
- % Enzyme Activity (relative to DMSO controls) ([15]; Data 1 and Data 2): 99.94%
- remaining activity at 10 µM [15, 34]: 101%
- % Enzyme Activity (relative to DMSO controls) ([16]; Data 1 and Data 2): 96.45%
- remaining activity at 10 µM [16, 34]: 97.3%
- % Enzyme Activity (relative to DMSO controls) ([17]; Data 1 and Data 2): 101.65%
- remaining activity at 10 µM [17, 34]: 105%
- % Enzyme Activity (relative to DMSO controls) ([18]; Data 1 and Data 2): 97.85%
- remaining activity at 10 µM [18, 34]: 98%
- % Enzyme Activity (relative to DMSO controls) ([19]; Data 1 and Data 2): 93.90%
- remaining activity at 10 µM [19, 34]: 95.7%
- % Enzyme Activity (relative to DMSO controls) ([20]; Data 1 and Data 2): 92.54%
- remaining activity at 10 µM [20, 34]: 94%
- % Enzyme Activity (relative to DMSO controls) ([21]; Data 1 and Data 2): 101.98%
- remaining activity at 10 µM [21, 34]: 102%
- % Enzyme Activity (relative to DMSO controls) ([22]; Data 1 and Data 2): 73.81%
- remaining activity at 10 µM [22, 34]: 74.1%
- % Enzyme Activity (relative to DMSO controls) ([23]; Data 1 and Data 2): 99.04%
- remaining activity at 10 µM [23, 34]: 103%
- % Enzyme Activity (relative to DMSO controls) ([24]; Data 1 and Data 2): 92.65%
- remaining activity at 10 µM [24, 34]: 93.4%
- % Enzyme Activity (relative to DMSO controls) ([25]; Data 1 and Data 2): 91.29%
- remaining activity at 10 µM [25, 34]: 91.4%
- % Enzyme Activity (relative to DMSO controls) ([26]; Data 1 and Data 2): 67.11%
- remaining activity at 10 µM [26, 34]: 68.4%
- % Enzyme Activity (relative to DMSO controls) ([27]; Data 1 and Data 2): 90.33%
- remaining activity at 10 µM [27, 34]: 90.7%
- % Enzyme Activity (relative to DMSO controls) ([28]; Data 1 and Data 2): 97.02%
- remaining activity at 10 µM [28, 34]: 98.8%
- % Enzyme Activity (relative to DMSO controls) ([29]; Data 1 and Data 2): 99.82%
- remaining activity at 10 µM [29, 34]: 101%
- % Enzyme Activity (relative to DMSO controls) ([30]; Data 1 and Data 2): 95.95%
- remaining activity at 10 µM [30, 34]: 96.3%
- % Enzyme Activity (relative to DMSO controls) ([31]; Data 1 and Data 2): 96.52%
- remaining activity at 10 µM [31, 34]: 98.7%
- % Enzyme Activity (relative to DMSO controls) ([32]; Data 1 and Data 2): 29.80%
- remaining activity at 10 µM [32, 34]: 29.9%
- % Enzyme Activity (relative to DMSO controls) ([33]; Data 1 and Data 2): 94.12%
- remaining activity at 10 µM [33, 34]: 95.3%
